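Exposure lasted 48 hours, with cells grown in 96-well plates and compounds tested at five concentrations. GI50 is the concentration that inhibits growth by half.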 Activity calls are given as the source filed them. Cut-off read from the data, not from the text of the source: active = GI50 up to about 1.1 µM and inactive = higher.
Key:
Assay in all cases: growth of human tumour cells (NCI), 48 h
LOX IMVI = test system: LOX IMVI
OVCAR-3 = test system: OVCAR-3
UO-31 = test system: UO-31
SK-MEL-2 = test system: SK-MEL-2
SW-620 = test system: SW-620
HCT-15 = test system: HCT-15
SR = test system: SR
MOLT-4 = test system: MOLT-4
OVCAR-8 = test system: OVCAR-8
UACC-62 = test system: UACC-62
OVCAR-4 = test system: OVCAR-4
HOP-92 = test system: HOP-92
ACHN = test system: ACHN
CAKI-1 = test system: CAKI-1
NCI-H23 = test system: NCI-H23
SNB-19 = test system: SNB-19
SK-OV-3 = test system: SK-OV-3
NCI-H522 = test system: NCI-H522

Structure (SMILES): COc1ccc2c(c1OC)C1=C(C2=O)c2cc3c(cc2CCN1)OCO3
- GI50 (LOX IMVI): 24.8 µM (inactive)
- GI50 (OVCAR-3): 31.6 µM (inactive)
- GI50 (UO-31): 48.3 µM (inactive)
- GI50 (SK-MEL-2): 29 µM (inactive)
- GI50 (SW-620): 22.5 µM (inactive)
- GI50 (HCT-15): 29.4 µM
- GI50 (SR): 21 µM (inactive)
- GI50 (MOLT-4): 21.6 µM (inactive)
- GI50 (OVCAR-8): 39.9 µM (inactive)
- GI50 (UACC-62): 35.4 µM (inactive)
- GI50 (OVCAR-4): 4.35 µM (inactive)
- GI50 (HOP-92): 58.6 µM (inactive)
- GI50 (ACHN): 3.42 µM (inactive)
- GI50 (CAKI-1): 27.3 µM (inactive)
- GI50 (NCI-H23): 46.5 µM (inactive)

Structure (SMILES): O=C(Cc1ccccc1)NN1C(=O)C(Cl)C1c1cccc([N+](=O)[O-])c1 (centres undefined)
- GI50 (LOX IMVI): 5.31 µM (inactive)
- GI50 (OVCAR-3): 43.4 µM (inactive)
- GI50 (UO-31): 31.7 µM (inactive)
- GI50 (SNB-19): > 92.9 µM (inactive)
- GI50 (SK-OV-3): 90.6 µM (inactive)
- GI50 (SK-MEL-2): 31.7 µM (inactive)
- GI50 (SW-620): 27.6 µM (inactive)
- GI50 (HCT-15): 58.5 µM
- GI50 (SR): 3.06 µM (inactive)
- GI50 (MOLT-4): 12.4 µM (inactive)
- GI50 (OVCAR-8): 27.9 µM (inactive)
- GI50 (UACC-62): 31.3 µM (inactive)
- GI50 (OVCAR-4): 29.8 µM (inactive)
- GI50 (HOP-92): 14 µM (inactive)
- GI50 (ACHN): > 60.5 µM (inactive)
- GI50 (CAKI-1): 38.5 µM (inactive)
- GI50 (NCI-H522): 1.91 µM (inactive)
- GI50 (NCI-H23): 26.4 µM (inactive)

Structure (SMILES): N=C(N)NCCCC(Nc1c2ccccc2nc2ccccc12)C(=O)O (centres undefined)
- GI50 (LOX IMVI): > 100 µM (inactive)
- GI50 (OVCAR-3): 82.6 µM (inactive)
- GI50 (SK-MEL-2): > 100 µM (inactive)
- GI50 (SW-620): > 100 µM (inactive)
- GI50 (HCT-15): > 100 µM
- GI50 (SR): > 100 µM (inactive)
- GI50 (MOLT-4): 86.7 µM (inactive)
- GI50 (OVCAR-8): > 100 µM (inactive)
- GI50 (OVCAR-4): 3.51 µM (inactive)
- GI50 (HOP-92): > 100 µM (inactive)
- GI50 (ACHN): > 100 µM (inactive)
- GI50 (CAKI-1): > 100 µM (inactive)
- GI50 (NCI-H522): 44 µM (inactive)
- GI50 (NCI-H23): > 100 µM (inactive)

Structure (SMILES): COC12OCCN(C)C1=CC(=O)C1(C)N=NCC12 (centres undefined)
- GI50 (LOX IMVI): > 100 µM (inactive)
- GI50 (OVCAR-3): > 100 µM (inactive)
- GI50 (UO-31): > 100 µM (inactive)
- GI50 (SK-OV-3): > 100 µM (inactive)
- GI50 (SW-620): > 100 µM (inactive)
- GI50 (HCT-15): > 100 µM
- GI50 (MOLT-4): > 100 µM (inactive)
- GI50 (OVCAR-8): > 100 µM (inactive)
- GI50 (UACC-62): > 100 µM (inactive)
- GI50 (HOP-92): > 100 µM (inactive)
- GI50 (ACHN): > 100 µM (inactive)
- GI50 (CAKI-1): > 100 µM (inactive)
- GI50 (NCI-H522): > 100 µM (inactive)
- GI50 (NCI-H23): > 100 µM (inactive)

Structure (SMILES): CCOC(=O)C(C)(c1c(C)[nH]c2ccccc12)c1c(C)[nH]c2ccccc12
- GI50 (OVCAR-3): 16 µM (inactive)
- GI50 (UO-31): 12.5 µM (inactive)
- GI50 (SK-OV-3): 26 µM (inactive)
- GI50 (SK-MEL-2): 18.8 µM (inactive)
- GI50 (SW-620): 16.9 µM (inactive)
- GI50 (HCT-15): 15 µM
- GI50 (MOLT-4): 13.6 µM (inactive)
- GI50 (OVCAR-8): 26.8 µM (inactive)
- GI50 (UACC-62): 14.2 µM (inactive)
- GI50 (OVCAR-4): 14.9 µM (inactive)
- GI50 (ACHN): 19.5 µM (inactive)
- GI50 (CAKI-1): 14.3 µM (inactive)
- GI50 (NCI-H23): 17.1 µM (inactive)

Structure (SMILES): CC(O[Si](C)(C)C)C1C=CC(C)n2c(=O)n(-c3ccccc3)c(=O)n21 (centres undefined)
- GI50 (OVCAR-3): > 100 µM (inactive)
- GI50 (UO-31): > 100 µM (inactive)
- GI50 (SNB-19): > 100 µM (inactive)
- GI50 (SK-OV-3): > 100 µM (inactive)
- GI50 (SK-MEL-2): > 100 µM (inactive)
- GI50 (HCT-15): > 100 µM
- GI50 (SR): > 100 µM (inactive)
- GI50 (MOLT-4): > 100 µM (inactive)
- GI50 (OVCAR-8): > 100 µM (inactive)
- GI50 (UACC-62): > 100 µM (inactive)
- GI50 (OVCAR-4): > 100 µM (inactive)
- GI50 (HOP-92): < 0.01 µM (active)
- GI50 (CAKI-1): > 100 µM (inactive)
- GI50 (NCI-H23): > 100 µM (inactive)

Structure (SMILES): COC1C=CC23c4cc5c(cc4C(O)OC2CN(C)C3C1)OCO5 (centres undefined)
- GI50 (LOX IMVI): 1.29 µM (inactive)
- GI50 (OVCAR-3): 1.76 µM (inactive)
- GI50 (UO-31): 2.69 µM (inactive)
- GI50 (SNB-19): 1.65 µM (inactive)
- GI50 (SW-620): 1.59 µM (inactive)
- GI50 (SR): 1.17 µM (inactive)
- GI50 (MOLT-4): 1.34 µM (inactive)
- GI50 (OVCAR-8): 2.16 µM (inactive)
- GI50 (UACC-62): 4.13 µM (inactive)
- GI50 (OVCAR-4): 1.35 µM (inactive)
- GI50 (ACHN): 1.32 µM (inactive)
- GI50 (CAKI-1): 2.98 µM (inactive)
- GI50 (NCI-H522): 2 µM (inactive)
- GI50 (NCI-H23): 2.94 µM (inactive)

Structure (SMILES): CCOc1cc[n+]([C-](C#N)C#N)cc1
- GI50 (LOX IMVI): > 100 µM (inactive)
- GI50 (OVCAR-3): > 100 µM (inactive)
- GI50 (UO-31): > 100 µM (inactive)
- GI50 (SNB-19): > 100 µM (inactive)
- GI50 (SK-OV-3): > 100 µM (inactive)
- GI50 (SW-620): > 100 µM (inactive)
- GI50 (HCT-15): > 100 µM
- GI50 (SR): > 100 µM (inactive)
- GI50 (MOLT-4): > 100 µM (inactive)
- GI50 (OVCAR-8): > 100 µM (inactive)
- GI50 (UACC-62): > 100 µM (inactive)
- GI50 (OVCAR-4): > 100 µM (inactive)
- GI50 (HOP-92): > 100 µM (inactive)
- GI50 (CAKI-1): > 100 µM (inactive)
- GI50 (NCI-H522): > 100 µM (inactive)
- GI50 (NCI-H23): > 100 µM (inactive)

Structure (SMILES): Cc1cccc2c1NC(c1c(C)[nH]c3ccccc13)C2 (centres undefined)
- GI50 (LOX IMVI): 80 µM (inactive)
- GI50 (OVCAR-3): 86.7 µM (inactive)
- GI50 (UO-31): 64.4 µM (inactive)
- GI50 (SNB-19): > 100 µM (inactive)
- GI50 (SK-OV-3): > 100 µM (inactive)
- GI50 (SK-MEL-2): > 100 µM (inactive)
- GI50 (SW-620): 68.2 µM (inactive)
- GI50 (HCT-15): > 100 µM
- GI50 (SR): > 100 µM (inactive)
- GI50 (MOLT-4): 63 µM (inactive)
- GI50 (OVCAR-8): > 100 µM (inactive)
- GI50 (UACC-62): 78.2 µM (inactive)
- GI50 (HOP-92): 1.41 µM (inactive)
- GI50 (ACHN): 94 µM (inactive)
- GI50 (NCI-H522): > 100 µM (inactive)
- GI50 (NCI-H23): > 100 µM (inactive)

— ChEMBL document CHEMBL1201862, “PubChem BioAssay data set” (2004)
